pIC50, pKi: −log10 of the molar value. Where two headings read alike, the source gives them in different places.
Assays:
enkephalinase B [1] = biological target: T1, enkephalinase B (Rattus norvegicus, UniProt O55096); experiment: Enkephalinase B inhibition IC50, method of Parker and Waud, substrate 0.1 mM methionine-enkephalin; format: biochemical
T1 construct: from tissue; host or cells: rat brain membrane, Triton X-100 solubilized, purified by DEAE chromatography, chromatofocusing and gel filtration
T1 sequence (O55096 2-738 limits assumed): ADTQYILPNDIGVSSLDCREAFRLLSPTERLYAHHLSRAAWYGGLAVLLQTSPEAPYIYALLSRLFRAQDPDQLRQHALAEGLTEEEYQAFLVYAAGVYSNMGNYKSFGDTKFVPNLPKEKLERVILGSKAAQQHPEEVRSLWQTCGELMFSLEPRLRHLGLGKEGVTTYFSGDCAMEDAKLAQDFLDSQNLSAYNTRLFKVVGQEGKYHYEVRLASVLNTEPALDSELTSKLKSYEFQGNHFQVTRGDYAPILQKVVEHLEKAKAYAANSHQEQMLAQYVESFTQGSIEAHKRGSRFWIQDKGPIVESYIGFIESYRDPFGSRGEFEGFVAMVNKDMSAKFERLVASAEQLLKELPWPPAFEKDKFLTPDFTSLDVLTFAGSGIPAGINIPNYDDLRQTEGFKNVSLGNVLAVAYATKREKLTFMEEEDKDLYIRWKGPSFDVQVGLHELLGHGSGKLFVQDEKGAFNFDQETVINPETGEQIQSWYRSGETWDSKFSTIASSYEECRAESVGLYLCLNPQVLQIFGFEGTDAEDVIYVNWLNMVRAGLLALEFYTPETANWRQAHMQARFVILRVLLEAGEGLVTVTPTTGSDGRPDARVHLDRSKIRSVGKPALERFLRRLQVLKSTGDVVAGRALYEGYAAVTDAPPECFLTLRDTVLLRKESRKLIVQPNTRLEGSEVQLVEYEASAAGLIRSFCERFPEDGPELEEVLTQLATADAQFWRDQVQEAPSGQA
Experimental: (§1) 100 g of rat brain was homogenized using 1 liter of 50 mM tris-HCl buffer (pH 7.7) and the homogenate was centrifuged at 50,000 G for 15 minutes to give a precipitate. The precipitate was washed three times and centrifuged as before. It was then suspended in 500 ml of the same buffer containing 1% of Triton X-100, and kept at 37° C. for 1 hour. The suspension was centrifuged at 100,000 G for 1 hour to give a crude enzyme solution of enkephalinase B as supernatant.
The thus obtained crude enzyme solution was dialyzed against a 5 mM sodium phosphate buffer (pH 7.0) and was applied for adsorption to a column (3.0×30 cm) of DEAE-Sephacel (produced by Pharmacia Co. Ltd.) previously equilibrated with the same buffer containing 1% Triton X-100 (solution A). The column was washed with solution A and eluted with 2.5 liters of solution A and with 2.5 liters of solution A which contains 0.4M sodium chloride by the linear concentration gradient method. […]
A mixture of 40 μl of 0.1M sodium phosphate buffer (pH 6.5), 10 μl of a Propioxatin A solution and 40 μl of an enkephalinase B solution was incubated at 37° C. for 5 minutes, then 10 μl of a 1 mM or 10 mM methionine-enkephalin solution were added, followed by stirring at 37° C. for 20 minutes. The reaction was then stopped by adding 10 μl of 2N hydrochloric acid to the reaction mixture, and the amount of tyrosyl-glycine (Tyr-Gly) produced (Vi) with respect to 20 μl of the reaction mixture was determined by high pressure liquid chromatography. Similarly, the amount of tyrosyl-glycine produced (V) in a blank test, in which no Propioxatin was contained and only a buffer was used, was measured. […]
By way of comparison, the enkephalinase B inhibition activity was also measured for the compound N-[3-(N-hydroxycarbamoyl)-2-benzylpropanoyl]alanine, which is a compound within formula (I) of the above-mentioned French patent specification No. 2 518 088 (Japanese laid-open application No. 58-150547). […]

enkephalinase B [2] = biological target: T1, enkephalinase B; experiment: Enzymatic properties of purified enkephalinase B (Michaelis constant); format: biochemical; conditions: purified rat brain enkephalinase B
Experimental: as §1
(§2) The thus obtained crude enzyme solution was dialyzed against a 5 mM sodium phosphate buffer (pH 7.0) and was applied for adsorption to a column (3.0×30 cm) of DEAE-Sephacel (produced by Pharmacia Co. Ltd.) previously equilibrated with the same buffer containing 1% Triton X-100 (solution A). The column was washed with solution A and eluted with 2.5 liters of solution A and with 2.5 liters of solution A which contains 0.4M sodium chloride by the linear concentration gradient method.
(§3) The obtained fraction of enkephalinase B was dialyzed against solution A, and was applied for adsorption to a column (1.6×27 cm) of DEAE-Toyopearl 670S (produced by Toyo Soda Kogyo K.K.) previously equilibrated with solution A. Elution was carried out using 500 ml of solution A and 500 ml of a solution of 0.4M sodium chloride dissolved in solution A by the linear concentration gradient method. […]

rat = experiment: Analgesic action by the Randall-Selitto method after administration into the cerebral ventricle; format: in vivo
Experimental: Propioxatin A (10 μg) and enkephalin (1 mg) were administered simultaneously into the cereberal ventricle of a rat and the analgesic action thereof was examined by the Randall-Selitto method (Randall, L. D. and Selitto, J. J.; Arch. Int. Pharmacodyn. 111, 409-419 (1957)). The same quantities of Propioxatinn A and enkephalin were also administered separately, as controls.

enkephalinase B [3] = biological target: T1, enkephalinase B; experiment: Inhibition of enkephalinase B, Ki by the method of Dixon (Tyr-Gly released from methionine-enkephalin, HPLC); format: biochemical; conditions: for pKi: enkephalinase B, pH 6.5, 37° C., methionine-enkephalin substrate, method of Dixon, read-out: Ki value (inhibition constant)
Experimental: The presence of the desired substances, Propioxatins A and B, can be assessed quantitavely during the processes of cultivation and purification by measuring the enkephalinase B inhibition activity. To do this, methionine-enkephalin is incubated with an enkephalinase B solution containing the Propioxatin, and then the amount of the resulting product tyrosyl-glycine (Tyr-Gly) is estimated by chromatography (e.g. thin layer chromatography or high pressure liquid chromatography). A blank test without Propioxatin is also carried out, and the enkephalinase B inhibition constant is determined. The enkephalinase B solution used for this technique can be prepared from rat brain by generally-known enzyme purification methods. Since enkephalinase B exists in rat brain as a membrane-bound enzyme, it is released from the membrane and made soluble using a detergent such as Triton X-100. The solubilized enzyme is then subjected to a combination of purification processes such as ion-exchange chromatography in which various kinds of ion-exchangers having a diethylaminoethyl (DEAE) group can be used, gel filtration using a molecular sieve, or isoelectric fractionation to obtain the purified enkephalinase B. These methods are described in greater detail hereinafter in the Examples.
as §1, §2, §3

Solubility = format: physicochemical
[4] = enkephalin 1 mg, Propioxatin A 10 μg

Row | SMILES | type of inhibition of enkephalinase B (enkephalinase B [3]) | pKi (enkephalinase B [3]) | Solubility in ethanol and acetone (Solubility) | Solubility in ethyl acetate, chloroform, benzene and ether (Solubility) | Solubility in water, methanol and dimethyl sulfoxide (Solubility) | also measured
1 | C[C@H](NC(=O)C(CC(=O)NO)Cc1ccccc1)C(=O)O (stereo partly drawn) [Compound of FR 2 518 088, N-[3-(N-hydroxycarbamoyl)-2-benzylpropanoyl]alanine, reference compound] | – | – | – | – | – | pIC50 (enkephalinase B [1]): 4.35
2 | CSCC[C@H](NC(=O)[C@H](Cc1ccccc1)NC(=O)CNC(=O)CNC(=O)[C@@H](N)Cc1ccc(O)cc1)C(=O)O [Methionine-enkephaline, Tyr-Gly-Gly-Phe-Met] | – | – | – | – | – | Km value relative to Methionine-enkephaline (Michaelis constant) (enkephalinase B [2]): 53 µM
3 | CCC[C@H](CC(=O)NO)C(=O)N1CCC[C@H]1C(=O)N[C@H](C(=O)O)C(C)C [Propioxatin A] | competitive inhibitor | 7.89 | slightly soluble | insoluble | Soluble | analgesic effect (rat; Propioxatin A 10 μg injected alone): No appreciable analgesic effect; prolonging the analgesic action of enkephalin (rat; Propioxatin A 10 μg with enkephalin 1 mg): significantly effective; IC50 (enkephalinase B [1]; enkephalinase B, substrate 0.1 mM methionine-enkephalin, read-out: IC50 (converted)): 0.0299 µM; more active than the prior art compound (enkephalinase B [1]; ratio to the compound of FR 2 518 088, enkephalinase B IC50): approximately 1,000
4 | CC(C)C[C@H](CC(=O)NO)C(=O)N1CCC[C@H]1C(=O)N[C@H](C(=O)O)C(C)C [Propioxatin B] | competitive inhibitor | 6.96 | slightly soluble | insoluble | Soluble | –
5 | CC(C)C[C@H](NC(=O)[C@H](Cc1ccccc1)NC(=O)CNC(=O)CNC(=O)[C@@H](N)Cc1ccc(O)cc1)C(=O)O [enkephalin] | – | – | – | – | – | time for analgesic effect to fall to 50% of its peak value (rat; [4]): about 30 minutes; time of peak value of analgesic effect after injection (rat; [4]): approximately 10 minutes
